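1) Cells in 96-well plates. 2) Compound, 48 h, 5 concentrations. 3) Linear interpolation between surrounding doses. 4) Unreached endpoint = highest concentration. Abbreviation: GI50, concentration required for 50% inhibition of growth.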 Activity calls are given as the source filed them. No stated cut-off is given here; in the data, active = GI50 up to about 1.1 µM and inactive = higher.
Legend:
Experiment in all cases: NCI anticancer screen, dose series, 48 h
SK-MEL-28 = test system: SK-MEL-28
A549 = test system: A549
KM12 = test system: KM12
HL-60 = test system: HL-60
DLD-1 = test system: DLD-1
DMS-273 = test system: DMS-273
SW-620 = test system: SW-620
HOP-92 = test system: HOP-92
CCRF-CEM = test system: CCRF-CEM
UACC-257 = test system: UACC-257
OVCAR-3 = test system: OVCAR-3
XF498 = test system: XF498
HOP-62 = test system: HOP-62
SNB-19 = test system: SNB-19
EKVX = test system: EKVX
SK-MEL-2 = test system: SK-MEL-2
K562 = test system: K562
HCT-116 = test system: HCT-116
ACHN = test system: ACHN
HCC 2998 = test system: HCC 2998
HCT-15 = test system: HCT-15
SR = test system: SR
UACC-62 = test system: UACC-62
SF-539 = test system: SF-539
U-251 = test system: U-251
LXFL 529 = test system: LXFL 529
OVCAR-8 = test system: OVCAR-8
SF-295 = test system: SF-295
M14 = test system: M14
RXF 393 = test system: RXF 393
NCI-H522 = test system: NCI-H522
Malme-3M = test system: Malme-3M
CAKI-1 = test system: CAKI-1
M19-MEL = test system: M19-MEL
OVCAR-4 = test system: OVCAR-4
UO-31 = test system: UO-31
KM-20L2 = test system: KM-20L2
OVCAR-5 = test system: OVCAR-5
SNB-78 = test system: SNB-78
SN12C = test system: SN12C
TK-10 = test system: TK-10
COLO 205 = test system: COLO 205
HOP-18 = test system: HOP-18
MOLT-4 = test system: MOLT-4
NCI-H226 = test system: NCI-H226
SNB-75 = test system: SNB-75
LOX IMVI = test system: LOX IMVI
786-0 = test system: 786-0
IGROV-1 = test system: IGROV-1
NCI-H460 = test system: NCI-H460
DMS-114 = test system: DMS-114
HT-29 = test system: HT-29
NCI-H23 = test system: NCI-H23
SK-OV-3 = test system: SK-OV-3
A498 = test system: A498
SF-268 = test system: SF-268
SK-MEL-5 = test system: SK-MEL-5

CSc1cc(C(C)(C)C)ccc1C(O)c1ccc(C(C)(C)C)cc1SC
GI50 (SK-MEL-28): 17.5 µM (inactive)
GI50 (A549): 10.6 µM (inactive)
GI50 (KM12): 11.5 µM (inactive)
GI50 (HL-60): 4.91 µM (inactive)
GI50 (DLD-1): 8.36 µM (inactive)
GI50 (DMS-273): 10.9 µM (inactive)
GI50 (SW-620): 11.3 µM (inactive)
GI50 (HOP-92): 14.5 µM (inactive)
GI50 (CCRF-CEM): 10.9 µM (inactive)
GI50 (UACC-257): 10.4 µM (inactive)
GI50 (OVCAR-3): 12.4 µM (inactive)
GI50 (XF498): 10.8 µM (inactive)
GI50 (HOP-62): 13.5 µM (inactive)
GI50 (SNB-19): 16 µM (inactive)
GI50 (EKVX): 6.81 µM (inactive)
GI50 (SK-MEL-2): 15.1 µM (inactive)
GI50 (K562): 7.14 µM (inactive)
GI50 (HCT-116): 5.56 µM (inactive)
GI50 (ACHN): 11.5 µM (inactive)
GI50 (HCC 2998): 18.2 µM (inactive)
GI50 (HCT-15): 7.83 µM
GI50 (SR): 10.2 µM (inactive)
GI50 (UACC-62): 15.3 µM (inactive)
GI50 (SF-539): 16 µM (inactive)
GI50 (U-251): 14.1 µM (inactive)
GI50 (LXFL 529): 13.7 µM (inactive)
GI50 (OVCAR-8): 11.4 µM (inactive)
GI50 (SF-295): 10.5 µM (inactive)
GI50 (M14): 12.2 µM (inactive)
GI50 (RXF 393): 12.1 µM (inactive)
GI50 (NCI-H522): 10.2 µM (inactive)
GI50 (Malme-3M): 14 µM (inactive)
GI50 (CAKI-1): 11.3 µM (inactive)
GI50 (M19-MEL): 10.2 µM (inactive)
GI50 (OVCAR-4): 10.9 µM (inactive)
GI50 (UO-31): 6.37 µM (inactive)
GI50 (KM-20L2): 11 µM (inactive)
GI50 (OVCAR-5): 14 µM (inactive)
GI50 (SNB-78): 15.6 µM (inactive)
GI50 (SN12C): 13.1 µM (inactive)
GI50 (TK-10): 15.2 µM (inactive)
GI50 (COLO 205): 11 µM (inactive)
GI50 (HOP-18): 15.5 µM (inactive)
GI50 (MOLT-4): 3.35 µM (inactive)
GI50 (NCI-H226): 12.9 µM (inactive)
GI50 (SNB-75): 12.8 µM (inactive)
GI50 (LOX IMVI): 12 µM (inactive)
GI50 (786-0): 10.8 µM (inactive)
GI50 (IGROV-1): 10.1 µM (inactive)
GI50 (NCI-H460): 8.2 µM (inactive)
GI50 (DMS-114): 7.69 µM (inactive)
GI50 (HT-29): 5.79 µM (inactive)
GI50 (NCI-H23): 8.49 µM (inactive)
GI50 (SK-OV-3): 17.5 µM (inactive)
GI50 (A498): 13.2 µM (inactive)
GI50 (SF-268): 13.3 µM (inactive)
GI50 (SK-MEL-5): 14.4 µM (inactive)

From ChEMBL document CHEMBL1201862, “PubChem BioAssay data set” (2004)
